Results from US7473683B2, “Nonpolar thymidine analogs” (The Board of Trustees of the Leland Stanford Junior …, priority 2005, dated 2009).

Experiments:
[1] = tested on: DNA Pol I (Klenow fragment, exo-); test: steady-state kinetics of single nucleotide insertions, thymidine analogues in the template; type: biochemical, E. coli; settings: for Km / Vmax: 37° C.; for Vmax: 10 mM MgCl2, pH 7.5, normalized to lowest enzyme concentration; for rel. efficiency: relative to insertion of dATP opposite T
Description: In vitro steady-state kinetics. As polymerase substrates we used 28 mer/23 mer template-primer duplexes having the sequence (5′-ACT GXT CTCCCTATAGTGAGTCGTATTA [SEQ ID NO:1])·(5′-TAATACGACTCACTATAGGGAGA [SEQ ID NO:2]). Kinetics were measured at 37° C. in a buffer containing 10 mM Mg^2+. The primer was 5′ end-labeled and was extended by the polymerase in the presence of a single dNTP species over varied concentration and time. Products of single nucleotide insertions were resolved from unreacted primer by 20% denaturing gel electrophoresis, and were quantitated by autoradiography. Details of the kinetics experiments are given in the Supporting Data.
We chose DNA polymerase I (Klenow fragment, exonuclease-deficient) as an ideal candidate for initial study, as it is enzymatically well-characterized among replicative enzymes, and yet is relatively small and acts as a single subunit. We carried out kinetics studies of single nucleotide insertions in the steady state, using a gel electrophoresis-based assay.
Data for single nucleotide insertion kinetics in the steady-state. The enzyme was the Klenow fragment of DNA pol I from E. coli (exonuclease deficient). Methods are as described above.

[2] = tested on: self-complementary strands (5′-XCGCGCG); test: dangling end thermal denaturation studies (base stacking) with self-complementary strands; type: physicochemical; settings: for ΔG°37 (van't Hoff) / ΔH° (van't Hoff) / ΔS° (van't Hoff) / ΔΔG° stacking per base / Tm / ΔG°37 (fits) / ΔTm: dangling residue X in 5′-XCGCGCG; for Tm: 5.0 μM DNA strand, 1M NaCl, 10 mM phosphate buffer (pH 7.0), 0.1 mM EDTA, 280 nm; for ΔG°37 (fits): curve fits; for ΔTm: versus duplex with no dangling residue
Description: (§1) Thermal Denaturation Studies. After the samples were prepared in melting buffer (1M NaCl, 10 mM phosphate buffer (pH 7.0) with 0.1 mM EDTA), they were heated to 95° C. and allowed to slowly cool at a rate of 1° C./min to 5° C. The melting studies were carried out in Teflon-stoppered 1 cm path length quartz cells on a Varian Cary 1 UV-vis spectophotometer equipped with thermoprogrammer. Absorbance was monitored at 280 nm for stacking and at 260 nm for base pairing. […] The data were analyzed by the melt curve processing program, MeltWin v. 3.0. Melting temperatures (Tm) were determined by computer-fit of the first derivative of absorbance with respect to 1/T. Uncertainty in Tm is estimated at ±0.5° C. based on repetitions of experiments. Free-energy values were derived by two methods: (1) computer-fitting the denaturation data with an algorithm employing linear sloping baselines, using the two-state approximation for melting. Fits were excellent, with χ^−2 values of 10^−6 or better. (2) Van't Hoff thermodynamic parameters were derived from linear plots of 1/Tm vs In[CT] by measuring Tm as a function of concentration.
Sequence Design. We incorporated all five phosphoramidites into three new sequence contexts each for further study of pairing and stacking properties. The first is a self-complementary sequence designed to form a hexamer duplex, with the nonnatural base analogue overhanging (dangling) at the 5′ ends (Table 2). This same sequence context has been used previously in several studies of DNA base stacking. The second and third contexts comprise a pair of 12mer sequences that form duplexes with well-behaved two-state behavior. One strand is pyrimidine-rich, while the other is purine-rich; we substituted each analogue at a central position of each strand to test two widely varied sequence contexts for pairing effects.
Base Stacking. DNA base stacking stability has been correlated with the size of compounds when mono-, bi-, tri-, and tetra-cyclic base analogues were compared. To test this with the present series, which varies in size by a smaller amount, we examined the short self-complementary oligonucleotides by thermal denaturation experiments. The self-complementary duplexes contained the modified nucleosides as a 5′ overhanging base.

[3] = tested on: normal and bypass (SOS-induced) polymerases in E. coli; test: bacterial replication assay: bypass efficiency and fidelity of analogs in single-stranded M13 vector passaged through E. coli; type: cell-based; settings: for single-base deletions: diminished when bypass polymerases were induced; for difference between the match and mismatch efficiency, increase in cells expressing induced bypass polymerases: SOS-induced bypass polymerases
Text: Bacterial replication assay. The assay for bypass efficiency fidelity is briefly described in the text.
To ascertain the influence of sub-Angstrom size increases on the template coding properties of the T analogs in vivo, we ligated oligonucleotides containing each analog into a single-stranded M13 vector, which were then passaged through E. coli and scored for bypass efficiency and mutagenesis (fidelity) as described. We chose E. coli deficient in AlkB to eliminate the possibility of metabolization of the H analog, which was subsequently found to have no influence on the results when compared with AlkB-proficient cells. Bypass experiments shown in FIG. 7 were performed in a competitive manner, and efficiencies were evaluated by PCR-based quantitation of successfully replicated progeny DNA. SOS-induction of bypass polymerases by prior irradiation of E. coli with ultraviolet light increased trans-analog synthesis approximately 2-fold for all thymine analogs. […] It is noteworthy that the difference between the match and mismatch efficiency increased in cells expressing induced bypass polymerases: L (0.2), B (8.0), I (17.4), implying higher fidelity for the larger isosteres for bypass polymerases, which may contain larger or looser active sites.

[4] = tested on: 12-base pair duplex 5′-CTTTTCXTTCTT / 3′-GAAAAGXAAGAA; test: thermal denaturation, base pairing near the center of a 12-base pair duplex; type: physicochemical; settings: pyrimidine- or purine-rich strand, compared to T
Description: as §1
Sequence Design. We incorporated all five phosphoramidites into three new sequence contexts each for further study of pairing and stacking properties. […]

[5] = insertion of dATP opposite template base
[6] = insertion of dCTP opposite template base
[7] = insertion of dGTP opposite template base
[8] = insertion of dTTP opposite template base

| Molecule | Km [1, 5] | Vmax [1, 5] | rel. efficiency [1, 5] | Km [1, 6] | Vmax [1, 6] | rel. efficiency [1, 6] | Km [1, 7] | Vmax [1, 7] | rel. efficiency [1, 7] | Km [1, 8] | Vmax [1, 8] | rel. efficiency [1, 8] | ΔG°37 (van't Hoff) [2] | ΔH° (van't Hoff) [2] | ΔS° (van't Hoff) [2] | ΔΔG° stacking per base [2] | Tm [2] | ΔG°37 (fits) [2] | ΔTm [2] | difference between the match and mismatch efficiency, increase in cells expressing induced bypass polymerases ([3]; E. coli) | also measured |
| --- | --- | --- | --- | --- | --- | --- | --- | --- | --- | --- | --- | --- | --- | --- | --- | --- | --- | --- | --- | --- | --- |
| 2,4-diHydrogentoluene | 20 ± 2 µM | 0.90 ± 0.18 % · m in^−1 | 3.5 × 10^−3 | 100 ± 60 µM | 0.031 ± 0.006 % · m in^−1 | 2.4 × 10^−5 | 600 ± 210 µM | 0.025 ± 0.007 % · m in^−1 | 3.2 × 10^−6 | 61 ± 37 µM | 0.062 ± 0.022 % · m in^−1 | 7.7 × 10^−5 | -9.7 ± 0.1 kcal/mol | -55.4 ± 2.0 kcal/mol | −147 ± 6 cal/K · mol | 0.95 kcal/mol | 49.7 °C | -9.7 ± 0.0 kcal/mol | 11.1 °C |  | stabilization of the duplex by 5′ overhanging base (stacking) ([2]; compared with natural thymidine in the same position): least stabilizing of the series; single-base deletions ([3]; E. coli): evident |
| Cc1ccc(Br)cc1Br [B, 2,4-dibromotoluene] | 21 ± 5 µM | 12 ± 1 % · m in^−1 | 4.4 × 10^−2 | 79 ± 33 µM | 0.038 ± 0.005 % · m in^−1 | 3.7 × 10^−5 | 220 ± 100 µM | 0.023 ± 0.005 % · m in^−1 | 7.7 × 10^−6 | 37 ± 12 µM | 0.20 ± 0.03 % · m in^−1 | 4.2 × 10^−4 | -10.8 ± 0.1 kcal/mol | -62.0 ± 2.1 kcal/mol | −165 ± 7 cal/K · mol | 1.50 kcal/mol | 54.3 °C | -10.2 ± 0.0 kcal/mol | 15.7 °C | 8.0 |  |
| Cc1ccc(I)cc1I [I, 2,4-diiodotoluene] | 26 ± 11 µM | 1.3 ± 0.2 % · m in^−1 | 3.8 × 10^−3 | 20 ± 8 µM | 0.036 ± 0.001 % · m in^−1 | 1.4 × 10^−4 | 58 ± 18 µM | 0.017 ± 0.001 % · m in^−1 | 2.2 × 10^−5 | 48 ± 39 µM | 0.085 ± 0.037 % · m in^−1 | 1.4 × 10^−4 | -10.4 ± 0.2 kcal/mol | -55.7 ± 4.4 kcal/mol | −146 ± 14 cal/K · mol | 1.30 kcal/mol | 53.8 °C | -10.2 ± 0.1 kcal/mol | 15.2 °C | 17.4 | single-base deletions ([3]; E. coli): evident; pairing stability opposite natural bases [4]: least destabilizing |
| Cc1ccc(Cl)cc1Cl [L, 2,4-dichlorotoluene] | 3.3 ± 2.8 µM | 27 ± 5 % · m in^−1 | 6.3 × 10^−1 | 25 ± 13 µM | 0.021 ± 0.003 % · m in^−1 | 6.5 × 10^−5 | 190 ± 90 µM | 0.029 ± 0.007 % · m in^−1 | 1.2 × 10^−5 | 18 ± 18 µM | 0.13 ± 0.04 % · m in^−1 | 5.5 × 10^−4 | -10.0 ± 0.1 kcal/mol | -52.7 ± 1.2 kcal/mol | −138 ± 4 cal/K · mol | 1.10 kcal/mol | 52.3 °C | -10.1 ± 0.0 kcal/mol | 13.7 °C | 0.2 | replication bypass efficiency ([3]; E. coli, normal and bypass polymerases, competitive, PCR-based quantitation of progeny DNA): maximum bypass; replication fidelity in E. coli ([3]; normal and bypass polymerases): maximal in vivo fidelity |
| difluorotoluene [reference compound] | 9.4 ± 2.9 µM | 24 ± 3 % · m in^−1 | 2.0 × 10^−1 | 33 ± 11 µM | 0.071 ± 0.011 % · m in^−1 | 1.7 × 10^−4 | 36 ± 12 µM | 0.0071 ± 0.0008 % · m in^−1 | 1.5 × 10^−5 | 22 ± 13 µM | 0.12 ± 0.03 % · m in^−1 | 4.2 × 10^−4 | -10.1 ± 0.0 kcal/mol | -54.5 ± 0.9 kcal/mol | −143 ± 3 cal/K · mol | 1.15 kcal/mol | 52.4 °C | -10.1 ± 0.0 kcal/mol | 13.8 °C |  |  |
